The source made the active and inactive calls. The rule behind the calls is not given here.
Experiments:
in vitro [1] = details: human, liver microsomes
Description: Metabolic stability in human liver microsomes assessed as half life pretreated for 5 mins followed by NADPH addition and measured for 45 mins by LC/MS analysis

in vitro [2] = details: human
Description: Metabolic stability in human assessed as intrinsic clearance

in vitro [3] = details: mouse, liver microsomes
Description: Metabolic stability in mouse liver microsomes assessed as half life pretreated for 5 mins followed by NADPH addition and measured for 45 mins by LC/MS analysis

in vitro [4] = details: mouse
Description: Metabolic stability in mouse assessed as intrinsic clearance

Huh-7 = experiment: cells; details: Homo sapiens, Huh-7, 72 h
Description: Cytotoxicity against human Huh-7 cells assessed as inhibition of cell growth incubated for 72 hrs by CellTiter-Glo assay

[5] = molecular target: Fibroblast growth factor receptor 4 (Homo sapiens, UniProt P22455)
Description: Inhibition of FGFR4 (unknown origin) using TK as substrate incubated for 1 hr in presence of biotin/ATP by HTRF assay

in vitro [6] = details: human, liver microsomes; remark: listed apart in the source
Description: Metabolic stability in human liver microsomes assessed as intrinsic clearance pretreated for 5 mins followed by NADPH addition and measured for 45 mins by LC/MS analysis

in vitro [7] = details: mouse, liver microsomes; remark: listed apart in the source
Description: Metabolic stability in mouse liver microsomes assessed as intrinsic clearance pretreated for 5 mins followed by NADPH addition and measured for 45 mins by LC/MS analysis

BaF3 [8] = experiment: Cytotoxicity against mouse BaF3 cells expressing wild type TEL-fused FGFR4 assessed as inhibition of cell growth incubated for 72 hrs by CCK-8 assay; assay type: functional, cell-based; details: BaF3, 72 h
BaF3 [9] = experiment: Cytotoxicity against mouse BaF3 cells assessed as inhibition of cell growth incubated for 72 hrs by CCK-8 assay; assay type: functional, cell-based; details: BaF3, 72 h
BaF3 [10] = experiment: Cytotoxicity against mouse BaF3 cells expressing TEL-fused FGFR4 V550L mutant assessed as inhibition of cell growth incubated for 72 hrs by CCK-8 assay; assay type: functional, cell-based; details: BaF3, 72 h
[11] = molecular target: Fibroblast growth factor receptor 2 (Homo sapiens, UniProt P21802)
Description: Inhibition of FGFR2 (unknown origin) using TK as substrate incubated for 1 hr in presence of biotin/ATP by HTRF assay

[12] = molecular target: Fibroblast growth factor receptor 4 (Mus musculus) (UniProt Q03142); details: BaF3, dose 50-400 nM, time 4.0 hrs
[13] = molecular target: Fibroblast growth factor receptor 4 (Mus musculus) (UniProt Q03142); details: BaF3, dose 50-400 nM, time 4.0 hrs; remark: listed apart in the source
[14] = molecular target: Fibroblast growth factor receptor 3 (Homo sapiens, UniProt P22607)
Description: Inhibition of FGFR3 (unknown origin) using TK as substrate incubated for 1 hr in presence of biotin/ATP by HTRF assay

[15] = molecular target: Janus Kinase (JAK) (Homo sapiens) (UniProt P52333+P23458+O60674+P29597); details: dose 500.0 nM
Description: Inhibition of JAK (unknown origin) at 500 nM

[16] = molecular target: Fibroblast growth factor receptor 4 (Mus musculus) (UniProt Q03142); details: BaF3, dose 50-400 nM, time 4.0 hrs; remark: listed apart in the source

Fibroblast growth factor receptor 4, sequence (P22455 whole entry): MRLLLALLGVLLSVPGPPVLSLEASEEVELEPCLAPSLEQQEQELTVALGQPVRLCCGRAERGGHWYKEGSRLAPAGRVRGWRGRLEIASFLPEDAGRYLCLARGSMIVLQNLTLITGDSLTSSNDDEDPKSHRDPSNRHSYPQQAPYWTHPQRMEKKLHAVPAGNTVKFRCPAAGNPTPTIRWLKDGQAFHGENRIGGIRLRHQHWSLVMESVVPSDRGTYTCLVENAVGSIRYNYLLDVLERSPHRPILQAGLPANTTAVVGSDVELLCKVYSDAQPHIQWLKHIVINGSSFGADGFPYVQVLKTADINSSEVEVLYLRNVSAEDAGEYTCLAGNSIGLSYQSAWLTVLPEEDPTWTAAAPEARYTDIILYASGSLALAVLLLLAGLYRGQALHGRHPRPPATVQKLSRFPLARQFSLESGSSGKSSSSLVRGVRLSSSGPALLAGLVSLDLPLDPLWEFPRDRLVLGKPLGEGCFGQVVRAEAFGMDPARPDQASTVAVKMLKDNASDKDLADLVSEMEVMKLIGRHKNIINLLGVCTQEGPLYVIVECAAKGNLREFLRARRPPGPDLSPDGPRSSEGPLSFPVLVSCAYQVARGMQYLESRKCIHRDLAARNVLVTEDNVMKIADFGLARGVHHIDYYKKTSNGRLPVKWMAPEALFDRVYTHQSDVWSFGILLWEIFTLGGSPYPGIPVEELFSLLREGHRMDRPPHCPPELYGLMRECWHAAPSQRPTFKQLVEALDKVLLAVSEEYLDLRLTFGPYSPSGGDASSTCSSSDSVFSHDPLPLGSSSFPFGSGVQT
Fibroblast growth factor receptor 4 (Mus musculus), sequence (Q03142 17-799 limits assumed): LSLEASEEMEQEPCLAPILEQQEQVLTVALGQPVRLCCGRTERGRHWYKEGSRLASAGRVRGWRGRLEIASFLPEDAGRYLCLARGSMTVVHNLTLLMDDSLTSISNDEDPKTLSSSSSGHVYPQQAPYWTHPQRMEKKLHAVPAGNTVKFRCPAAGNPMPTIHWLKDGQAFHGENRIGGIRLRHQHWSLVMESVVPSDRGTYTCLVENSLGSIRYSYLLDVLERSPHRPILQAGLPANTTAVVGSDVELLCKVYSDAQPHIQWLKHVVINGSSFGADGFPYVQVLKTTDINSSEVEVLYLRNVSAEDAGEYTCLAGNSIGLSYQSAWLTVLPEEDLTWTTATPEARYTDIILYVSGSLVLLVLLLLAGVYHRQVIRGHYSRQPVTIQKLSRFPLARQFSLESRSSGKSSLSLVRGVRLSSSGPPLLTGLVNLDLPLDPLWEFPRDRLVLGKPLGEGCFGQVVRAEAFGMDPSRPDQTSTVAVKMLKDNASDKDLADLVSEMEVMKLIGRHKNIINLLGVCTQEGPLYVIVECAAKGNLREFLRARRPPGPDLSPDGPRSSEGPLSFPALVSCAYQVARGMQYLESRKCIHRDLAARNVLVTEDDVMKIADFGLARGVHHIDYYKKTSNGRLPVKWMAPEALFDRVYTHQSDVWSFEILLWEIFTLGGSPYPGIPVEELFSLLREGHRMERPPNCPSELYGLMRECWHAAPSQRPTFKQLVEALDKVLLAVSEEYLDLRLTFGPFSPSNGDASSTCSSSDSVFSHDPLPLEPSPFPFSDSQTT
Fibroblast growth factor receptor 3, sequence (P22607 whole entry): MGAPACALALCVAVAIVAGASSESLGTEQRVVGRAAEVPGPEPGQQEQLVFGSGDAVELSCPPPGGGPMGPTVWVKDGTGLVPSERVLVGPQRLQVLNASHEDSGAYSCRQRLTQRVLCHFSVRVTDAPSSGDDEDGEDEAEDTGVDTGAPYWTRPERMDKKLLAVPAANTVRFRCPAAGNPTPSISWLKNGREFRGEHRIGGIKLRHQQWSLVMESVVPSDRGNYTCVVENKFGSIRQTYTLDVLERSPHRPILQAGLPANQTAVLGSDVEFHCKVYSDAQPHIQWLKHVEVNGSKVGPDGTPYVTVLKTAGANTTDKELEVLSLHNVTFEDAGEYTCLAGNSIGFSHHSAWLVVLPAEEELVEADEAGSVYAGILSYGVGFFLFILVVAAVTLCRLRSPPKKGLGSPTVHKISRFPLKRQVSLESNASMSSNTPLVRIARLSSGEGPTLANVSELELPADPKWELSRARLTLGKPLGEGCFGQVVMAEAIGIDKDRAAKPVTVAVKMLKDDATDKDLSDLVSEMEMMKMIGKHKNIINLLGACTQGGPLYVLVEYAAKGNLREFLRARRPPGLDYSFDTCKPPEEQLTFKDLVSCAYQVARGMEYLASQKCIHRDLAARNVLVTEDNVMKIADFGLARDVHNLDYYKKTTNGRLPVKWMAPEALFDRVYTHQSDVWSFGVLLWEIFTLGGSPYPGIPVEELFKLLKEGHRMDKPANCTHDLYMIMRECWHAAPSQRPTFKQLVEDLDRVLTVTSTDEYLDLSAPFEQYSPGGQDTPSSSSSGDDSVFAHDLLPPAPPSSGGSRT
Fibroblast growth factor receptor 2, sequence (P21802 whole entry): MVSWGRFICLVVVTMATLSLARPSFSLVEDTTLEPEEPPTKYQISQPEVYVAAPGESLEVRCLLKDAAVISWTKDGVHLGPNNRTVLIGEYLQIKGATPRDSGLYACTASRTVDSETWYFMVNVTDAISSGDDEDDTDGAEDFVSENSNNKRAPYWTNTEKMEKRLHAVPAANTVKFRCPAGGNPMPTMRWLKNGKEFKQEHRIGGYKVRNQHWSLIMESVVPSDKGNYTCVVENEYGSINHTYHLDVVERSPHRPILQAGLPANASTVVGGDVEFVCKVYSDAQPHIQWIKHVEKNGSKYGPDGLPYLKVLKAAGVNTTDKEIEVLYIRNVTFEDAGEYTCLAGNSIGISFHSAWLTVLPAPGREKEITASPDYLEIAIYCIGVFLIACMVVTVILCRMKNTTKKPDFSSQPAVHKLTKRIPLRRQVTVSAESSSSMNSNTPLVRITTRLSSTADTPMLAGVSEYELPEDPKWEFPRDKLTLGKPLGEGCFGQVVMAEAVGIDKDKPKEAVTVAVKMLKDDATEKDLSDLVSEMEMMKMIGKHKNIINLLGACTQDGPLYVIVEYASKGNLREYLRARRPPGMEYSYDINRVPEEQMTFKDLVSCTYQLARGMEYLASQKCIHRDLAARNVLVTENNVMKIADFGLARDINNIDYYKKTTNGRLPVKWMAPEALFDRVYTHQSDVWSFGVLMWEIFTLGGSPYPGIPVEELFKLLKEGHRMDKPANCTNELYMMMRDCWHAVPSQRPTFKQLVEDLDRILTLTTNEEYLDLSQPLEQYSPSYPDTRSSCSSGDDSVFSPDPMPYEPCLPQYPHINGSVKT

| Compound | IC50 (Huh-7) [nM] | IC50 [5] [nM] | further results |
| --- | --- | --- | --- |
| COc1ccc(OC)c(S(=O)(=O)n2ccc3cnc(Nc4ccc(N5CCN(C)CC5)cc4)nc32)c1 | 244 | 8.7 | half-life at 50 min (in vitro [1]): 47.7 min; CLint scaled (in vitro [2]): 36.5 mL/min/kg; half-life at 50 min (in vitro [3]): 4.9 min; CLint scaled (in vitro [4]): 1110 mL/min/kg; microsomal CLint at 50 min (in vitro [6]): 40.5 µL/min/mg; microsomal CLint at 50 min (in vitro [7]): 283 µL/min/mg; IC50 (BaF3 [8]): 58.3 nM; IC50 (BaF3 [9]): > 2000 nM; IC50 (BaF3 [10]): 405 nM |
| COc1cccc(S(=O)(=O)n2ccc3cnc(Nc4ccc(N5CCN(C)CC5)cc4)nc32)c1 | 131 | 10.4 | half-life at 50 min (in vitro [1]): 39 min; CLint scaled (in vitro [2]): 32 mL/min/kg; half-life at 50 min (in vitro [3]): 4.2 min; CLint scaled (in vitro [4]): 654 mL/min/kg; microsomal CLint at 50 min (in vitro [6]): 35.5 µL/min/mg; microsomal CLint at 50 min (in vitro [7]): 165 µL/min/mg; IC50 (BaF3 [8]): 71.8 nM; IC50 (BaF3 [9]): > 2000 nM; IC50 (BaF3 [10]): 534 nM |
| COc1cccc(S(=O)(=O)n2ccc3cnc(Nc4ccc(N5CCN(C)CC5)cc4)nc32)c1OC | – | 1340 | – |
| CN1CCN(c2ccc(Nc3ncc4ccn(S(=O)(=O)c5ccccc5OC(F)(F)F)c4n3)cc2)CC1 | 444 | 36.8 | – |
| CN1CCN(c2ccc(Nc3ncc4ccn(S(=O)(=O)c5cccc(F)c5)c4n3)cc2)CC1 | – | 60.5 | – |
| CN1CCN(c2ccc(Nc3ncc4ccn(S(=O)(=O)c5ccn(C)n5)c4n3)cc2)CC1 | – | 127 | – |
| CN1CCN(c2ccc(Nc3ncc4ccn(S(=O)(=O)c5ccccc5Cl)c4n3)cc2)CC1 | 451 | 33.6 | – |
| COc1cccc(S(=O)(=O)n2ccc3cnc(Nc4ccc(N5CCOCC5)cc4)cc32)c1 | – | 198 | – |
| COc1cccc(S(=O)(=O)n2ccc3cnc(Nc4ccc(N5CCOCC5)cc4)nc32)c1 | – | 114 | – |
| COc1ccc(Cl)c(S(=O)(=O)n2ccc3cnc(Nc4ccc(N5CCN(C)CC5)cc4)nc32)c1 | 298 | 29 | – |
| COc1cccc(S(=O)(=O)n2ccc3cnc(Nc4ccc(N5CCC(N(C)C)C5)cc4)nc32)c1 (stereo not given) | 301 | 41.8 | – |
| CN1CCN(c2ccc(Nc3ncc4ccn(S(=O)(=O)c5c(Cl)cccc5Cl)c4n3)cc2)CC1 | 377 | 55 | – |
| CN1CCN(c2ccc(Nc3ncc4ccn(S(=O)(=O)C5CCCCC5)c4n3)cc2)CC1 | – | 615 | – |
| COc1cccc(S(=O)(=O)n2ccc3cnc(Nc4ccc(N(C)CCN(C)C)cc4)nc32)c1 | 811 | 17.1 | – |
| COc1cccc(S(C)(=O)=Nc2cc(Nc3ccc(N4CCOCC4)cc3)ncc2C#N)c1 (stereo not given) | – | 346 | – |
| COc1cccc(S(=O)(=O)c2c[nH]c3cnc(Nc4ccc(N5CCOCC5)cc4)nc23)c1 | – | 1970 | – |

| Compound | IC50 (Huh-7) [nM] | IC50 [5] [nM] | further results |
| --- | --- | --- | --- |
| COc1cccc(S(=O)(=O)n2ccc3cnc(Nc4ccc(N5C[C@@H]6C[C@H]5CN6C)cc4)nc32)c1 | 166 | 47.5 | half-life at 50 min (in vitro [1]): 224 min; CLint scaled (in vitro [2]): 6 mL/min/kg; half-life at 50 min (in vitro [3]): 13.1 min; CLint scaled (in vitro [4]): 416 mL/min/kg; microsomal CLint at 50 min (in vitro [6]): 6.4 µL/min/mg; microsomal CLint at 50 min (in vitro [7]): 106 µL/min/mg; IC50 (BaF3 [8]): 126 nM; IC50 (BaF3 [9]): > 2000 nM; IC50 (BaF3 [10]): 632 nM |
| CN1CCN(c2ccc(Nc3ncc4ccn(S(=O)(=O)c5cccnc5)c4n3)cc2)CC1 | 383 | 33 | – |
| COc1cccc(S(=O)(=O)n2ccc3cnc(Nc4ccc(N5C[C@@H](C)N[C@@H](C)C5)cc4)nc32)c1 | – | 17.1 | IC50 [11]: 46.7 nM; inhibition [12]: Dose-Dependent Effect; inhibition [13]: Dose-Dependent Effect; IC50 [14]: 29.6 nM; inhibition [15]: Active; inhibition [16]: Dose-Dependent Effect |
| COc1cccc(S(=O)(=O)Nc2cc(Nc3ccc(N4CCOCC4)cc3)ncc2C#N)c1 | – | > 10000 | – |
| CN1CCN(c2ccc(Nc3ncc4ccn(S(=O)(=O)c5cccc6c5OCO6)c4n3)cc2)CC1 | 534 | 29.5 | – |
| COc1cc(OC)cc(S(C)(=O)=Nc2cc(Nc3ccc(N4CCOCC4)cc3)ncc2C#N)c1 (stereo not given) | – | 2190 | – |
| COc1ccccc1S(=O)(=O)n1ccc2cnc(Nc3ccc(N4CCN(C)CC4)cc3)nc21 | 240 | 16.1 | – |
| COc1cccc(S(=O)(=O)c2cnc3cnc(Nc4ccc(N5CCOCC5)cc4)cn23)c1 | – | 4770 | – |
| COc1cccc(S(=O)(=O)n2ccc3cnc(Nc4ccc(CN5CCN(C)CC5)cc4)nc32)c1 | – | 132 | – |
| COc1ccc(S(=O)(=O)n2ccc3cnc(Nc4ccc(N5CCN(C)CC5)cc4)nc32)cc1 | – | 893 | – |
| COc1cccc(S(=O)(=O)n2ccc3cnc(Nc4ccc(N5CCC(N(C)C)CC5)cc4)nc32)c1 | 310 | 13.9 | – |
| CN1CCN(c2ccc(Nc3ncc4ccn(S(=O)(=O)c5cc(F)cc(F)c5)c4n3)cc2)CC1 | 191 | 12.7 | half-life at 50 min (in vitro [1]): 35.2 min; CLint scaled (in vitro [2]): 49.4 mL/min/kg; half-life at 50 min (in vitro [3]): 4.4 min; CLint scaled (in vitro [4]): 1250 mL/min/kg; microsomal CLint at 50 min (in vitro [6]): 54.8 µL/min/mg; microsomal CLint at 50 min (in vitro [7]): 319 µL/min/mg; IC50 (BaF3 [8]): 64 nM; IC50 (BaF3 [9]): > 2000 nM; IC50 (BaF3 [10]): 376 nM |
| CN1CCN(c2ccc(Nc3ncc4ccn(S(=O)(=O)c5cccc(OC(F)(F)F)c5)c4n3)cc2)CC1 | – | 703 | – |
| CN1CCN(c2ccc(Nc3ncc4ccn(S(=O)(=O)c5ccccc5)c4n3)cc2)CC1 | – | 74.7 | – |
| C=CC(=O)N[C@H]1CCOC[C@H]1Nc1ncc2cc(-c3c(Cl)c(OC)cc(OC)c3Cl)ccc2n1 [FISOGATINIB] | 45.9 | 5.3 | – |
| COc1cccc(S(=O)(=O)n2ccc3cnc(Nc4ccc(C(=O)N5CCN(C)CC5)cc4)nc32)c1 | 449 | 112 | – |
